Consider 1 compound from PMC12641067 (Clinical Pharmacology and Therapeutics, 2025).

Like-named read-outs stand apart in the source and are kept apart here.

In data set [1] the target is T1, OATP1B3 (Homo sapiens, UniProt Q9NPD5).
T1 sequence (Q9NPD5 1-702): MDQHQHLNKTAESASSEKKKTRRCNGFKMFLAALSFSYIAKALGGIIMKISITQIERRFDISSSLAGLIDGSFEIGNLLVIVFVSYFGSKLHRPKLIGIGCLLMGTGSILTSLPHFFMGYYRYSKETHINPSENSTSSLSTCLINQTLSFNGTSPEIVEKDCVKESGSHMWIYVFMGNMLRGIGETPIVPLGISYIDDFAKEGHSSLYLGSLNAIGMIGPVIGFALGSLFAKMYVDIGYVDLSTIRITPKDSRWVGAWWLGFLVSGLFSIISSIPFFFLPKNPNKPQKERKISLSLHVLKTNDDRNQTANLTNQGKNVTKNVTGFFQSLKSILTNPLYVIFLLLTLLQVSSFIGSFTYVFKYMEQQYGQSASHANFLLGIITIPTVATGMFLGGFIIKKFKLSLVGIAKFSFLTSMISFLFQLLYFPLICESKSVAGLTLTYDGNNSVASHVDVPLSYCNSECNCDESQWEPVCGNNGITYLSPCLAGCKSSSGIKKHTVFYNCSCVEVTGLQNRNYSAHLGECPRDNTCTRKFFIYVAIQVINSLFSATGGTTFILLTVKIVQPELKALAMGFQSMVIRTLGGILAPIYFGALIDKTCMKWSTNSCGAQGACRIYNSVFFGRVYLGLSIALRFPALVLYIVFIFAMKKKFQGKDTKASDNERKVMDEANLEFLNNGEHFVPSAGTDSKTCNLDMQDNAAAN
The experiment in a line: In vivo OATP1B3 inhibition estimated by POP-PK modeling of GCDCA-S data. More on the design: hepatic OATP1B3 and renal OAT3 transporters; from tissue; host or cells: liver (hepatocytes) of healthy human subjects, in vivo. Particulars: GCDCA-S as substrate, rifampicin 600 mg, population estimate (RSE%), read-out: K i,unbound,OATP1B3.

The nature of data set [2]: Population PK model of rifampicin (plasma data). Particulars: population estimate (RSE%). The data set is classed as in vivo, human. Here is the method: Individual plasma and urine data of GCDCA‐S in healthy subjects were obtained from three clinical studies. Tatosian et al.[18] (study #1) consisted of two occasions: on both occasions, a microdose probe drug cocktail for multiple clinically relevant transporters was administered, with a single oral dose of 600 mg rifampicin co‐administered on the second occasion (n = 6; 3 males, 3 females). Willemin et al.[22] (study #2) was a two‐phase, cross‐over study with a 21‐day washout period between the two phases. […] Study #3 consists of unpublished data from the same study design as reported by Willemin et al. (n = 12; 12 males).[22]
Models were evaluated using visual predictive check (VPC) plots, goodness‐of‐fit (GOF) plots, parameter uncertainty, and changes in objective function. Model visualization and simulations were conducted in MATLAB 2024a (MathWorks, Natick, MA, USA) and Graph Pad Prism 10.2.2 (GraphPad software, La Jolla, CA, USA).
The structural model for rifampicin was based on our previous report,[33] and represents a one‐compartment model with zero‐order absorption and linear elimination.
The models for rifampicin, probenecid, and GCDCA‐S incorporated both inter‐individual variability for a number of model parameters (assuming log‐normal distribution) and residual unexplained variability (using a combination of proportional and additive error models).

The test system of data set [3] is OATP1B1. More on the design: method as in ref 18 (a number printed in a supplementary file, which may have a reference list of its own: not looked up in the article's list). The conditions noted are these: HEK293, read-out: In vitro OATP1B1 IC50, cited from earlier work.
Data set [4] deals with T1, OATP1B3. More on the design: method as in ref 18 (a number printed in a supplementary file, which may have a reference list of its own: not looked up in the article's list). Particulars: HEK293, read-out: In vitro OATP1B3 IC50, cited from earlier work.
For data set [5], the system named is OATP1B1. On the set-up: method as in ref 22 (a number printed in a supplementary file, which may have a reference list of its own: not looked up in the article's list). The conditions noted are these: substrate CP-I, 150 – 600 mg, read-out: In vivo OATP1B Ki,u; cited from earlier work.
Another data set concerns OATP1B. Particulars: substrate CP-I, 600 mg, read-out: In vivo OATP1B Ki,u, cited from earlier work.

With `CO[C@H]1/C=C/O[C@@]2(C)Oc3c(C)c(O)c4c(O)c(c(/C=N/N5CCN(C)CC5)c(O)c4c3C2=O)NC(=O)/C(C)=C\C=C\[C@H](C)[C@H](O)[C@@H](C)[C@@H](O)[C@@H](C)[C@H](OC(C)=O)[C@@H]1C` [RIF, rifampicin], the Ki on OATP1B3 [1] is 9 nM; in the data set with OATP1B1 [5], 140 nM; in the data set with OATP1B (ref 8) it was 130 nM; in the data set on OATP1B (ref 19), 20 nM; in the data set with OATP1B (ref 21), 100 nM; with OATP1B (ref 23) it was 38 nM. In addition, the Ki with OATP1B (ref 24) is 53 nM. In data set [2] (both sexes, human, plasma, oral, 600 mg, read-out: CL RIF (converted)), the clearance was 112 mL/min. Besides, the “Tk0 RIF” value in data set [2] (duration of zero-order absorption) is reported as 0.84 (41) h. Further, in data set [2], the “V RIF” value is reported as 35 (5) L. In addition, the “Tlag RIF” value in data set [2] (single oral dose 600 mg) is on record as 0.56 (20) h. The IC50 in the data set with OATP1B1 [3] (substrate CP-I) is 610 nM; in the data set with OATP1B1 [3] (substrate GCDCA-S), 170 nM; at OATP1B3 [4] (substrate CP-I) it was 570 nM; on OATP1B3 [4] (substrate GCDCA-S), 280 nM.

For orientation: IC50 means the concentration needed to halve the response being measured.
